Measured values from US8889731B2, “Compounds, compositions and methods for repelling blood-feeding arthropods and deterring their landing and feeding” (Contech Enterprises Inc., priority 2007, dated 2014).

Key:
Aedes aegypti = experiment: Arm-in-cage repellent/deterrent bioassay on exposed human forearm (modified WHO protocol), Aedes aegypti; format: in vivo
Procedure: (§1) Candidate repellents and deterrents were bioassayed according to a modified protocol from the World Health Organization (1996). At least 1 hour prior to each bioassay, 75 host-seeking non blood-fed, nulliparous, 5- to 8-day-old female Aedes aegypti, Anopheles gambiae or Culex quinquefasciatus were placed into a wood-framed cage (26.5 cm on each side and 42.5 cm high) with a wooden floor, screened mesh sides and top, and a clear acrylic front fitted with a cotton stockinette sleeve (10 cm diameter). The test subject's arm was covered with an elbow-length polyethylene glove with an excised patch (16.6 cm long, 6 cm wide) to expose the ventral forearm of the test subject. Candidate deterrents were formulated in mineral (paraffin) oil and applied to the exposed forearm 5 min prior to inserting the arm into the cage. The inserted arm remained in the cage for 3 min every 30 min. Prior to each 3-min bioassay period, the hand of the untreated arm was inserted into the cage to ascertain that it received 10 bites within 30 sec as an indication of “biting pressure”.
(§2) The bioassay was terminated when the treated arm received ≧2 bites in one 3-min bioassay period or one bite in each of two consecutive bioassay periods. The time elapsed from experiment initiation to first bite was recorded as deterrent failure or complete protection time.
(§3) N,N-diethyl-m-toluamide formulated in ethanol at a corresponding dose served as a positive control, and mineral oil by itself served as a negative control. On each day, only one candidate compound was tested, ensuring that any residual material in the chamber had disappeared before the next bioassay.
To determine the repellence and deterrence of 8-allylsulfanyloctan-1-ol against Aedes aegypti, a 5%, 10% or 25% formulation of 8-allylsulfanyloctan-1-ol in mineral oil was applied in Experiments 1-3 at a dose of 1.5 mg (total composition) per cm^2 to the skin of the test person, and was bioassayed according to the protocol described under EXAMPLE 2. In Experiment 4, mineral oil by itself served as a negative control and was bioassayed at the same dose (1.5 mg per cm^2) as in Experiments 1-3. Each of Experiments 1-4 was replicated four times.
To compare the repellence and deterrence against Aedes aegypti caused by 8-allylsulfanyloctan-1-ol as a single active ingredient and by 8-allylsulfanyloctan-1-ol in combination with vanillin as a second active ingredient, we tested a 6.7% emulsion of vanillin (Experiment 14), a 6.7% emulsion of 8-allylsulfanyloctan-1-ol (Experiment 15), and a 13.4% emulsion of 8-allylsulfanyloctan-1-ol plus vanillin (1:1 ratio) (Experiment 16). 8-Allylsulfanyloctan-1-ol and vanillin were formulated in Emulsion No. 1 (see EXAMPLE 9). In each of Experiments […], test stimuli were applied at a dose of 1.5 mg per cm^2 to the skin of the test person, and were bioassayed according to the protocol described under EXAMPLE 2. In Experiment 17, Emulsion No. 1 served as a positive control and was tested at the same dose (1.5 mg per cm^2) as in Experiments 14-16.
To be able to compare the repellence and deterrence caused by N,N-diethyl-m-toluamide and by 8-allylsulfanyloctan-1-ol plus vanillin in Emulsion No. 1 (EXAMPLE 9), Experiment 26 tested a 6.7% formulation of N,N-diethyl-m-toluamide in ethanol (the best formulant for DEET) for protection from bites by Aedes egypti. In each replicate, a dose of 1.5 mg per […] was applied to the skin of the test person and bioassayed according to the protocol described under EXAMPLE 2.
To be able to further compare the deterrence caused by N,N-diethyl-m-toluamide with that caused by 8-allylsulfanyloctan-1-ol plus vanillin, Experiment 27 tested a 10.4% formulation of N,N-diethyl-m-toluamide in ethanol, and Experiment 28 tested 8-allylsulfanyloctan-1-ol (10.4%) plus vanillin (7.9%) in Emulsion No. 2 (EXAMPLE 10). […]

mosquitoes = experiment: General bioassay procedure with garlic oil, its components and fractions (mosquito species not given); format: in vivo
Procedure: as §1, §2, §3
Garlic oil (Allium sativum—Mexico; Clearwater Soap Works, Box 1775 RR1, Clearwater, BC V0E 1N0, Canada) was formulated in mineral oil and tested using the general bioassay procedure described in EXAMPLE 2 at a dose of 0.1 mg per cm^2 of arm surface. It expressed repellence and deterrence for ˜30 min.
Some of the 10 components in FIG. 1 were bioassayed singly (see general bioassay procedure) and in various combinations, all of which were as deterrent to mosquitoes as garlic oil.
To determine the most deterrent component(s) in garlic oil, it was fractionated by HPLC into four fractions, each containing one or more of the EAD-active components (compounds 1-10 in FIG. 1 and 11-14 in TABLE 2). Each fraction was then bioassayed and shown to be similarly effective in repelling and deterring mosquitoes.
(§4) Components with high molecular weight (>250 daltons) are advantageous in that they: 1) dissipate slowly from treated surfaces; 2) provide long-lasting protection against mosquitoes and 3) convey little, if any, offensive smell. The relative abundance of such components was enhanced by treating garlic oil under vacuum, thus stripping away lower-boiling components. In GC-EAD analyses of the high-boiling residue, four components elicited responses from mosquito antennae.

[1] = tested on: male or female Aedes aegypti antennae; experiment: Coupled gas chromatographic-electroantennographic detection (GC-EAD) of garlic oil extract
Procedure: FIG. 1 illustrates flame ionization detector (FID) and electroantennograhic detector (EAD: male or female Aedes aegypti antennae) responses to aliquots of the low boiling temperature portion of garlic oil extract. Chromatography: Hewlett Packard (HP) gas chromatograph equipped with a fused silica column (30 m×0.32 mm ID) coated with DB-5; injector and detector temperature: 250° C.; temperature program: 50° C.
Aliquots of garlic oil extracts were then subjected to coupled gas chromatographic-electroantennographic detection (GC-EAD) analysis. Fourteen components (10 shown in FIG. 1) elicited responses from female or male mosquito antennae. Some of these components were isolated by high-performance liquid chromatography (HPLC) for identification by nuclear magnetic resonance spectroscopy (NMR). Other components were identified (compounds 11-14 in TABLE 2) by coupled GC-mass spectrometry and by retention index calculations. […] Four of the 10 components in FIG. 1 were tentatively identified by comparing their mass spectra and retention indices with those reported in the literature (Block et al. 1998).
as §4

With C=CCSSCC(C)SSCC=C (stereo not drawn) [Compound 12, 6-methyl-4,5,8,9-tetrathiadodeca-1,11-diene] as the compound, how does the pest or weed control at 0.1 mg/cm2 (Aedes aegypti; Aedes aegypti, topical, Dosage 0.1 mg/cm^2, (C-T)/C x 100 at time of failure, read-out: Percent repellence) read?
Its pest or weed control at 0.1 mg/cm2 is 87%.

What about the pest or weed control at 0.5 mg/cm2 (Aedes aegypti; Aedes aegypti, topical, Dosage 0.5 mg/cm^2, (C-T)/C x 100 at time of failure, read-out: Percent repellence) of the same compound?
The pest or weed control at 0.5 mg/cm2 was 97%.

What about the Failure time (Aedes aegypti; Dosage 0.1 mg/cm^2, 0 = immediate failure) of the same compound?
Its Failure time is 0 min.

What about the Failure time (Aedes aegypti; Dosage 0.5 mg/cm^2) of the same compound?
Its Failure time is 102 min.

And the “repellent and deterrent effect in bioassays (in words)” value (mosquitoes)?
Its value is “strong repellent and deterrent effect”.

What about the “electroantennographic (EAD) response of mosquito antennae” value [1] of the same compound?
The value was “Antennal stimulatory”.
